According to PubChem BioAssay (NCI):
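Step 1: Grow cells in 96-well plates. Step 2: Expose to compound for 48 hours at 5 concentrations. Step 3: Interpolate endpoints linearly; if unreached, use highest concentration. At the TGI there is no net growth.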

Legend:
Assay in all cases: NCI anticancer screen, dose series, 48 h
[1] = system: RPMI-8226 leukemia
[2] = system: OVCAR-3 ovarian
[3] = system: T-47D breast
[4] = system: BT-549 breast
[5] = system: 786-0 renal
[6] = system: MALME-3M melanoma
[7] = system: TK-10 renal
[8] = system: UO-31 renal
[9] = system: COLO 205 colon
[10] = system: SR leukemia
[11] = system: IGROV1 ovarian
[12] = system: NCI/ADR-RES ovarian
[13] = system: LOX IMVI melanoma
[14] = system: SF-268 CNS
[15] = system: A498 renal
[16] = system: HL-60(TB) leukemia
[17] = system: MOLT-4 leukemia
[18] = system: KM12 colon
[19] = system: ACHN renal
[20] = system: SN12C renal
[21] = system: SK-MEL-28 melanoma
[22] = system: SK-OV-3 ovarian
[23] = system: SK-MEL-2 melanoma
[24] = system: U251 CNS
[25] = system: SW-620 colon
[26] = system: SF-295 CNS
[27] = system: HOP-62 NSCLC
[28] = system: PC-3 prostate
[29] = system: HS 578T breast
[30] = system: SNB-75 CNS
[31] = system: HOP-92 NSCLC
[32] = system: SF-539 CNS
[33] = system: OVCAR-5 ovarian
[34] = system: HCT-116 colon
[35] = system: MDA-MB-231 breast
[36] = system: MDA-MB-435
[37] = system: K-562 leukemia
[38] = system: NCI-H23 lung
[39] = system: HCT-15 colon
[40] = system: NCI-H460 lung
[41] = system: CAKI-1 renal
[42] = system: OVCAR-8 ovarian
[43] = system: DU-145 prostate
[44] = system: HT29 colon
[45] = system: NCI-H226 lung
[46] = system: UACC-62 melanoma
[47] = system: M14 melanoma
[48] = system: RXF 393 renal
[49] = system: A549 NSCLC
[50] = system: CCRF-CEM leukemia
[51] = system: SK-MEL-5 melanoma
[52] = system: NCI-H522 lung
[53] = system: MDA-N
[54] = system: MCF7 breast
[55] = system: UACC-257 melanoma
[56] = system: SNB-19 CNS
[57] = system: EKVX NSCLC
[58] = system: OVCAR-4 ovarian
[59] = system: HCC-2998 colon

COc1ccc2cc(C(=O)CCC(=O)O)ccc2c1
TGI [1]: > 100 µM
TGI [2]: > 100 µM
TGI [3]: > 100 µM
TGI [4]: > 100 µM
TGI [5]: > 100 µM
TGI [6]: > 100 µM
TGI [7]: > 100 µM
TGI [8]: > 100 µM
TGI [9]: > 100 µM
TGI [10]: > 100 µM
TGI [11]: > 100 µM
TGI [12]: > 100 µM
TGI [13]: > 100 µM
TGI [14]: > 100 µM
TGI [15]: > 100 µM
TGI [16]: > 100 µM
TGI [17]: > 100 µM
TGI [18]: > 100 µM
TGI [19]: > 100 µM
TGI [20]: > 100 µM
TGI [21]: > 100 µM
TGI [22]: > 100 µM
TGI [23]: > 100 µM
TGI [24]: > 100 µM
TGI [25]: > 100 µM
TGI [26]: > 100 µM
TGI [27]: > 100 µM
TGI [28]: > 100 µM
TGI [29]: > 100 µM
TGI [30]: > 100 µM
TGI [31]: > 100 µM
TGI [32]: > 100 µM
TGI [33]: > 100 µM
TGI [34]: > 100 µM
TGI [35]: > 100 µM
TGI [36]: > 100 µM
TGI [37]: > 100 µM
TGI [38]: > 100 µM
TGI [39]: > 100 µM
TGI [40]: > 100 µM
TGI [41]: > 100 µM
TGI [42]: > 100 µM
TGI [43]: > 100 µM
TGI [44]: > 100 µM
TGI [45]: > 100 µM
TGI [46]: > 100 µM
TGI [47]: > 100 µM
TGI [48]: > 100 µM
TGI [49]: > 100 µM
TGI [50]: > 100 µM
TGI [51]: > 100 µM
TGI [52]: > 100 µM
TGI [53]: > 100 µM
TGI [54]: > 100 µM
TGI [55]: > 100 µM
TGI [56]: > 100 µM
TGI [57]: > 100 µM
TGI [58]: > 100 µM

CC(=O)OCC1OC(n2c3c(cc(C#N)c2=O)CCCCCC3)C(OC(C)=O)C(OC(C)=O)C1OC(C)=O (configuration not stated)
TGI [1]: > 100 µM
TGI [2]: > 100 µM
TGI [3]: 90.3 µM
TGI [4]: > 100 µM
TGI [5]: > 100 µM
TGI [6]: > 100 µM
TGI [7]: > 100 µM
TGI [8]: > 100 µM
TGI [9]: > 100 µM
TGI [10]: > 100 µM
TGI [11]: > 100 µM
TGI [12]: > 100 µM
TGI [13]: > 100 µM
TGI [14]: > 100 µM
TGI [15]: > 100 µM
TGI [16]: > 100 µM
TGI [17]: > 100 µM
TGI [18]: > 100 µM
TGI [59]: > 100 µM
TGI [19]: > 100 µM
TGI [20]: > 100 µM
TGI [21]: > 100 µM
TGI [23]: > 100 µM
TGI [24]: > 100 µM
TGI [26]: > 100 µM
TGI [27]: > 100 µM
TGI [28]: > 100 µM
TGI [29]: > 100 µM
TGI [30]: > 100 µM
TGI [31]: > 100 µM
TGI [32]: > 100 µM
TGI [33]: > 100 µM
TGI [34]: > 100 µM
TGI [35]: > 100 µM
TGI [36]: > 100 µM
TGI [37]: > 100 µM
TGI [38]: > 100 µM
TGI [39]: > 100 µM
TGI [40]: > 100 µM
TGI [41]: > 100 µM
TGI [42]: > 100 µM
TGI [43]: > 100 µM
TGI [44]: > 100 µM
TGI [45]: > 100 µM
TGI [46]: > 100 µM
TGI [47]: > 100 µM
TGI [48]: > 100 µM
TGI [49]: > 100 µM
TGI [50]: > 100 µM
TGI [51]: > 100 µM
TGI [52]: > 100 µM
TGI [53]: > 100 µM
TGI [54]: > 100 µM
TGI [55]: > 100 µM
TGI [56]: > 100 µM
TGI [58]: > 100 µM

O=C(N=Nc1c(O)[nH]c2ccccc12)C(O)(c1ccccc1)c1ccccc1
TGI [1]: 62 µM
TGI [2]: 36.3 µM
TGI [3]: 68.8 µM
TGI [4]: 28.9 µM
TGI [5]: > 100 µM
TGI [6]: 46.5 µM
TGI [7]: 99.3 µM
TGI [8]: 29.8 µM
TGI [9]: 33.3 µM
TGI [10]: 79.4 µM
TGI [11]: 39.6 µM
TGI [12]: 84.6 µM
TGI [13]: 31.4 µM
TGI [14]: 87.9 µM
TGI [15]: 36 µM
TGI [16]: 69 µM
TGI [17]: > 100 µM
TGI [18]: 35.4 µM
TGI [59]: 27.9 µM
TGI [19]: > 100 µM
TGI [21]: 33.9 µM
TGI [22]: 56.6 µM
TGI [23]: 31.8 µM
TGI [24]: 35.3 µM
TGI [25]: 34 µM
TGI [26]: 36.3 µM
TGI [28]: 38.5 µM
TGI [29]: 66.6 µM
TGI [30]: 43.6 µM
TGI [31]: 49.7 µM
TGI [32]: 29.6 µM
TGI [33]: 31.5 µM
TGI [34]: 37.5 µM
TGI [35]: 35.5 µM
TGI [36]: 31.8 µM
TGI [37]: 89.8 µM
TGI [38]: 30.1 µM
TGI [39]: 30.3 µM
TGI [40]: 34.7 µM
TGI [41]: > 100 µM
TGI [42]: 67.3 µM
TGI [43]: 73.9 µM
TGI [44]: 37.2 µM
TGI [45]: 43.8 µM
TGI [46]: 30.1 µM
TGI [47]: 30.4 µM
TGI [48]: 28.3 µM
TGI [49]: 42.1 µM
TGI [50]: > 100 µM
TGI [51]: 29.7 µM
TGI [53]: 34 µM
TGI [54]: 56.4 µM
TGI [55]: 56.3 µM
TGI [56]: 34.2 µM
TGI [57]: > 100 µM
TGI [58]: 50.9 µM

Nc1nc(Cl)nc(NCc2ccccc2)n1
TGI [1]: > 100 µM
TGI [2]: > 100 µM
TGI [3]: > 100 µM
TGI [4]: > 100 µM
TGI [5]: > 100 µM
TGI [6]: > 100 µM
TGI [7]: > 100 µM
TGI [9]: > 100 µM
TGI [10]: > 100 µM
TGI [11]: > 100 µM
TGI [12]: > 100 µM
TGI [13]: > 100 µM
TGI [14]: > 100 µM
TGI [15]: > 100 µM
TGI [16]: > 100 µM
TGI [17]: > 100 µM
TGI [18]: > 100 µM
TGI [59]: > 100 µM
TGI [19]: > 100 µM
TGI [20]: > 100 µM
TGI [21]: > 100 µM
TGI [22]: > 100 µM
TGI [23]: > 100 µM
TGI [24]: > 100 µM
TGI [25]: > 100 µM
TGI [26]: > 100 µM
TGI [27]: > 100 µM
TGI [28]: > 100 µM
TGI [29]: > 100 µM
TGI [30]: > 100 µM
TGI [31]: > 100 µM
TGI [32]: > 100 µM
TGI [33]: > 100 µM
TGI [34]: > 100 µM
TGI [35]: > 100 µM
TGI [36]: > 100 µM
TGI [37]: > 100 µM
TGI [38]: > 100 µM
TGI [39]: > 100 µM
TGI [40]: > 100 µM
TGI [41]: > 100 µM
TGI [42]: > 100 µM
TGI [43]: > 100 µM
TGI [44]: > 100 µM
TGI [45]: > 100 µM
TGI [46]: > 100 µM
TGI [47]: > 100 µM
TGI [48]: > 100 µM
TGI [49]: > 100 µM
TGI [50]: > 100 µM
TGI [51]: > 100 µM
TGI [53]: > 100 µM
TGI [54]: > 100 µM
TGI [55]: > 100 µM
TGI [56]: > 100 µM
TGI [57]: > 100 µM
TGI [58]: > 100 µM
